Measurements published in patent publication US11578055B2, “Triazacyclododecansulfonamide (“TCD”)-based protein secretion inhibitors” (KEZAR LIFE SCIENCES, priority 2018, dated 2023).
pEC50, pIC50: −log10 of the molar value. Counter-ions that a name gives are not always drawn. Like-named read-outs stand apart in the source and are kept apart here.

Columns and labels:
[1] = In Vitro Microsome Stability Assay (human); type: in vitro ADME
Protocol: (§1) Potassium phosphate (423 μL of a 0.1 M solution) was added to 8-strip deep well tubes followed by human, mouse, rat, or monkey microsomes (25 μL of a 20 mg/mL solution). The tubes were then placed on ice and the test article (2 μL of a 0.25 mM solution in DMSO) was added. The mixture was preincubated at 37° C. for 3 to 5 minutes (shaking at 150 rpm) then the reaction was initiated by adding 50 μL NADPH. An aliquot of samples (100 μL) were collected at 0 and 30 min and 200 μL of an acetonitrile mixture containing IS (compound 914) was added to quench the reaction. After centrifuging for 10 min at 4000 rpm, a mixed solution of the 20 μL of the supernatant (20 μL) plus 100 μL ACN/H2O (1:1) were injected for LC-MS/MS analysis. Liver microsome stability is assessed by the % remaining of compound at 30 min which is calculated using the following equation: [(AUCanalyteT=30/AUCIS)/(AUCanalyteT=0/AUCIS)]*100
(§2) For chemical structures that include one or more stereoisomers, but are illustrated without indicating stereochemistry, the assay data refers to a mixture of stereoisomers.

[2] = In Vitro Microsome Stability Assay (monkey); type: in vitro ADME
Protocol: as §1, §2

[3] = In Vitro Microsome Stability Assay (mouse); type: in vitro ADME
Protocol: as §1, §2

[4] = In Vitro Microsome Stability Assay (rat); type: in vitro ADME
Protocol: as §1, §2

[5] = tested on: multiple myeloma cell line U266B1; assay: U266 Cell Viability Assay; type: cell-based, human; conditions: Homo sapiens, U-266, 48 hr
Protocol: (§3) The human multiple myeloma cell line U266B1 was cultured in RPMI 1640 media supplemented with 10% fetal bovine serum, 2 mM Glutamine, and 1× Penicillin/Streptomycin. Cells were plated in 384-well tissue culture plates and treated with compound dilutions in DMSO/media. Plates were incubated at 37° C., 5% CO2 for 48 hours. After 48 hours, Celltiter-Glo® (Promega) was added to each well and luciferase signal was quantified using Tecan Infinite M1000 Pro for cell viability determination.
For chemical structures that include one or more stereoisomers, but are illustrated without indicating stereochemistry, the assay data refers to a mixture of stereoisomers

[6] = tested on: multiple myeloma cell line NCl-H929; assay: H929 Cell Viability Assay; type: cell-based, human; conditions: Homo sapiens, NCI-H929, 48 h
Protocol: as §3, with “NCl-H929” for “U266B1”, “cultured in Advanced RPMI 1640 media (Gibco®) supplemented with 6% fetal bovine serum, 2 mM Glutamine, and 1× Penicillin/Streptomycin. On the day of assay, cells were resuspended” for “cultured”, “Penicillin/Streptmycin and” for “Penicillin/Streptomycin. Cells were”
as §2

[7] = tested on: PD1 signal sequence plus 10 amino acids fused to Gaussia Luciferase (PD1-ss+10aa/Gaussia Luciferase); assay: Dox Induced PD1-ss-Gluc Assay; type: cell-based; conditions: 24 hr, read-out: 24 hr Dox Inducible PD1ssGluc 293FRT/TO: Mean IC50
Description: FIp-In 293 T-REx™ cells were transfected with pcDNA™5/FRT/TO plasmid inserted with cDNA encoding Gaussia Luciferase fused to the 3′ end of cDNA encoding PD1 signal sequence plus 10 amino acids (N-[…]-C) (SEQ ID NO: 1). Transfected cells were selected for resistance to the selectable markers Hygromycin and Blasticidin to create a stable cell line that contained the PD1-ss+10aa/Gaussia Luciferase cDNA insert whose expression was regulated under the T-REx™ system. The day before assay, cells were trypsinized and plated in 384-well tissue culture plates. The next day, compound dilutions in DMSO/media containing doxycycline were added to the wells and incubated at 37° C., 5% CO2.
as §2

[8] = tested on: full length TNFα (amino acids 1-233) fused to Gaussia Luciferase; assay: Dox Induced TNFα-FL-Gluc Assay; type: cell-based; conditions: 24 hr, read-out: 24 hr Dox Inducible TNFaFLGluc 293FRT/TO: Mean IC50
Description: FIp-In 293 T-REx™ cells were transfected with pcDNA™5/FRT/TO plasmid inserted with cDNA encoding Gaussia Luciferase fused to the 3′ end of cDNA encoding full length TNFα (amino acids 1-233). Transfected cells were selected for resistance to the selectable markers Hygromycin and Blasticidin to create a stable cell line that contained the TNFα-FL/Gaussia Luciferase cDNA insert whose expression was regulated under the T-REx™ system. The day before assay, cells were trypsinized and plated in 384-well tissue culture plates. The next day, compound dilutions in DMSO/media containing doxycycline were added to the wells and incubated at 37° C., 5% CO2.
as §2

[9] = U266, read-out: 48 hr U266 Viability Celltiter-Glo: Mean EC50
[10] = H929, read-out: 48 hr H929 Viability Celltiter-Glo: Mean EC50
[11] = human liver microsomes, 30 min w/ NADPH
[12] = monkey liver microsomes, 30 min w/ NADPH
[13] = mouse liver microsomes, 30 min w/ NADPH
[14] = rat liver microsomes, 30 min w/ NADPH

Compound	Liver Microsome Stability-% Left after 30 min w/ NADPH (%) Human ([1]; human, 30 min, NADPH) [%]	Liver Microsome Stability-% Left after 30 min w/ NADPH (%) Monkey ([2]; monkey, 30 min, NADPH) [%]	Liver Microsome Stability-% Left after 30 min w/ NADPH (%) Mouse ([3]; mouse, 30 min, NADPH) [%]	Liver Microsome Stability-% Left after 30 min w/ NADPH (%) Rat ([4]; rat, 30 min, NADPH) [%]	pEC50 [5, 9]	pEC50 [6, 10]	pIC50 ([7]; 293FRT/TO)	pIC50 ([8]; 293FRT/TO)	Liver Microsome Stability-% Left after 30 min w/ NADPH (%) Human [1, 11] [%]	Liver Microsome Stability-% Left after 30 min w/ NADPH (%) Monkey [2, 12] [%]	Liver Microsome Stability-% Left after 30 min w/ NADPH (%) Mouse [3, 13] [%]	Liver Microsome Stability-% Left after 30 min w/ NADPH (%) Rat [4, 14] [%]	pEC50 ([5]; U266, Celltiter-Glo)	pEC50 ([6]; H929, Celltiter-Glo)	pIC50 ([7]; Dox inducible, 293FRT/TO cells)	pIC50 ([8]; Dox inducible, 293FRT/TO cells)
CN(C)c1ccc(S(=O)(=O)N2CCCN(CC3CCCCC3)CCCN(S(=O)(=O)N3CCC(c4ccccc4)CC3)CC(O)C2)cc1 (centres unmarked) [A55, 9-(cyclohexylmethyl)-1-[4-(dimethylamino)benzenesulfonyl]-5-[(4-phenylpiperidin-1-yl)sulfonyl]-1,5,9-triazacyclododecan-3-ol]	4.87	0.34	1.18	0.97	< 4.60	< 4.60	5.81	< 4.60								
CN(C)c1ccc(S(=O)(=O)N2CCCN(CC3CCCCC3)CCCN(S(=O)(=O)N3CCC(c4ccccc4)CC3)CC(=O)C2)cc1 [B20, 9-(cyclohexylmethyl)-1-((4-(dimethylamino)phenyl)sulfonyl)-5-((4-phenylpiperidin-1-yl)sulfonyl)-1,5,9-triazacyclododecan-3-one]									5.43	1.73	3.41	11.1	< 4.60	< 4.60	6.10	< 4.60
COC1CN(S(=O)(=O)c2ccc(N(C)C)cc2)CCCN(CC2CCCCC2)CCCN(S(=O)(=O)N2CCC(c3ccccc3)CC2)C1 (centres unmarked) [A61, 4-{[9-(cyclohexylmethyl)-3-methoxy-5-[(4-phenylpiperidin-1-yl)sulfonyl]-1,5,9-triazacyclododecan-1-yl]sulfonyl}-N,N-dimethylaniline]	13.3	8.96	17.9	19.6	< 4.60	< 4.60	6.02	< 4.60								
C=C1CN(S(=O)(=O)c2ccc(C)cc2)CCCN(CC2CCCCC2)CCC(C)N(S(=O)(=O)c2ccc(C)cc2)C1 (centres unmarked) [B1, 5-(cyclohexylmethyl)-2-methyl-11-methylene-1,9-ditosyl-1,5,9-triazacyclododecane hydrochloride]									0.04	0.02	0.02	0.01	< 4.60	< 4.60	6.37	< 4.60
CN(C)c1ccc(S(=O)(=O)N2CCCN(CC3CCCCC3)CCCN(S(=O)(=O)N3CCCCC3)CC3(CC3)C2)c(F)c1 [A40]	0.04	0.04	0.19	0.12	< 4.60	< 4.60	6.51	< 4.82								
C=C1CN(S(=O)(=O)c2ccc(N(C)C)cc2)CCCN(CC2CCCCC2)CCCN(S(=O)(=O)N2CCCCC2)C1 [A13, 4-{[9-(cyclohexylmethyl)-3-methylidene-5-(piperidine-1-sulfonyl)-1,5,9-triazacyclododecan-1-yl]sulfonyl}-N,N-dimethylaniline]	0.65	0.1	0.04	0.1	< 4.60	6.01	7.60	5.83								
C=C1CN(S(=O)(=O)c2ccc(N(C)C)cc2)CCCN(CC2CCCCC2)CCCN(S(=O)(=O)N2CC=C(c3cccc(Cl)c3)CC2)C1 [A69, 4-[(5-{[4-(3-chlorophenyl)-1,2,3,6-tetrahydropyridin-1-yl]sulfonyl}-9-(cyclohexylmethyl)-3-methylidene-1,5,9-triazacyclododecan-1-yl)sulfonyl]-N,N-dimethylaniline]	63	58.2	64.6	74.3	< 4.60	< 4.60	6.87	< 4.60								
C=C1CN(S(=O)(=O)c2ccc(N(C)C)cc2)CCCN(CC2CCCCC2)CCCN(S(=O)(=O)N2CCc3cc(Cl)ccc3C2)C1 [A53, 4-({5-[(6-chloro-1,2,3,4-tetrahydroisoquinolin-2-yl)sulfonyl]-9-(cyclohexylmethyl)-3-methylidene-1,5,9-triazacyclododecan-1-yl}sulfonyl)-N,N-dimethylaniline]	38	39	39.2	50.5	< 4.99	5.77	7.45	5.99								
C=C1CN(S(=O)(=O)c2ccc(N(C)C)cc2)CCCN(CC2CCCCC2)CCCN(S(=O)(=O)N2CCC[C@H](c3ccccc3)C2)C1 [A49, 4-{[9-(cyclohexylmethyl)-3-methylidene-5-{[(3 R)-3-phenylpiperidin-1-yl]sulfonyl}-1,5,9-triazacyclododecan-1-yl]sulfonyl}-N,N-dimethylaniline]	3.5	9.36	11.8	16.4	< 4.60	< 4.60	6.39	< 4.60								
C=C1CN(S(=O)(=O)c2ccc(N(C)C)cc2)CCCN(CC2CCCCC2)CCCN(S(=O)(=O)N2CCC(c3ncccn3)CC2)C1 [A81, 4-{[9-(cyclohexylmethyl)-3-methylidene-5-{[4-(pyrimidin-2-yl)piperidin-1-yl]sulfonyl}-1,5,9-triazacyclododecan-1-yl]sulfonyl}-N,N-dimethylaniline]	0.2	0.03	0.12	0.12	< 4.60	< 4.60	6.32	< 4.60								
